The target in assay [1] is T1, human full-length glucocorticoid receptor (Homo sapiens, UniProt P04150).
T1 construct: recombinantly expressed human full-length glucocorticoid receptor; purchased Panvera Co., Madison, Wis
T1 sequence (P04150 1-777): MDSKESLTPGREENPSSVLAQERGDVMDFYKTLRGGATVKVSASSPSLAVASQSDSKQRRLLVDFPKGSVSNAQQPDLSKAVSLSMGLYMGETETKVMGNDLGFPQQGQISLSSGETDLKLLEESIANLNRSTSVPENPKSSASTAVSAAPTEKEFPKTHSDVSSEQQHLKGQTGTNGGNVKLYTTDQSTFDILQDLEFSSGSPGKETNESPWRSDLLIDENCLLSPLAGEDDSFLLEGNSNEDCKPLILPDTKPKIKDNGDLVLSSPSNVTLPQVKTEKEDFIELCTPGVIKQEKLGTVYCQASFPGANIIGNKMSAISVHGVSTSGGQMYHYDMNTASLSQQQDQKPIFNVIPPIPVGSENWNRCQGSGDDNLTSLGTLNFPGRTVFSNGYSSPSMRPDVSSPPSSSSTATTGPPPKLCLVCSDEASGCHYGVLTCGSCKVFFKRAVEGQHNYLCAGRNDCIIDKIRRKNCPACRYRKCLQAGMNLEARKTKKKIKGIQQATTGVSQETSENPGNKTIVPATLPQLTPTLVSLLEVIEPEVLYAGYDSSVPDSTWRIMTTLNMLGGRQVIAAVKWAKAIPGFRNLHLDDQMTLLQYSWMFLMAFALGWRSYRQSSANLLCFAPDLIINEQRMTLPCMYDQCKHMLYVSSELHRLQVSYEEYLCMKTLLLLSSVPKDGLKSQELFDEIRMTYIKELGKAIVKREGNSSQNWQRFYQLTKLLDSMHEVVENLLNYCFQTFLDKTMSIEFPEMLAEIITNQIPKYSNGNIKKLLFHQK
The assay can be described thus: GR Site I binding assay (FITC-dexamethasone fluorescence polarization, Panvera kit). The procedure:
In order to measure the binding of compounds to Site I on the glucocorticoid receptor a commercially available kit was used (Glucocorticoid receptor competitor assay kit, Panvera Co., Madison, Wis.). Briefly, a cell lysate containing recombinantly expressed human full-length glucocorticoid receptor was mixed with a fluorescently labeled glucocorticoid (4 nM FITC-dexamethasone) plus or minus test molecule. After one hour at room temperature, the fluorescence polarization (FP) of the samples were measured.

The target of a further assay is T2, Site II on GR (Homo sapiens, UniProt P04150).
T2 construct: recombinantly expressed human full-length glucocorticoid receptor; purchased Panvera Co., Madison, Wis
T2 sequence (P04150 1-777): T1 sequence (P04150 1-777)
The assay can be described thus: Indirect Site II assay: modified FITC-dexamethasone FP assay with Compound D. Type of assay: binding. The procedure: In order to measure the binding of putative Site II compounds to GR we utilized the Glucocorticoid receptor competitor assay kit (Panvera Co., Madison, Wis.) in a modified version of the FITC-dexamethasone fluorescence polarization assay described in Example 2. In this assay, Compound D was added at a concentration of 200 nM, which yields approximately 50% inhibition of FITC-dexamethasone binding. Compound D (an R enantiomer) is Compound 50 of Example 1. Compound D is a ligand of Site II that inhibits via Site II FITC-dexamethasone binding to GR. […] These competitor Site II ligands, all compounds of Example 1 and all S enantiomers, were: Compound A; Compound C, which is the S enantiomer of Compound D; and Compound E, yet another S enantiomer of Example 1. If the competitor compound binds to Site II and displaces Compound D, then FITC-dexamethasone should rebind to GR. […] This assay can therefore measure the relative binding of compounds to the Site II on GR.

The test system of assay [2] is AP-1 induced transcriptional activity. The assay is described as follows: Cellular transrepressional assay (AP-1 luciferase reporter, A549 cell, PMA). Type of assay: cell-based. The conditions noted are these: for IC50: read-out: IC50 for transrepression. On the procedure: To measure the ability of test molecules to inhibit AP-1 induced transcriptional activity we utilized an A549 cell which was stably transfected with a plasmid containing 7×AP-1 DNA binding sites (pAP-1-Luc plasmid, Stratagene Co. La Jolla, Calif.) followed by the gene for luciferase. Cells were activated with 10 ng/ml of phorbol myristic acid (PMA) plus or minus test molecules for 7 hours. After 7 hours a luciferase reagent was added to measure luciferase enzymatic activity in the cell. After a 10 minute incubation of luciferase reagent with cells, luminescence was measured in a TopCount luminescence counter. Repression of AP-1 activity was calculated as the percentage decrease in the signal induced by PMA alone. […] IC50s were determined by using standard curve fitting methods such as Excel fit (Microsoft Co.). An IC50 is the test molecule concentration which causes a 50% repression of transcription, i.e. a 50% reduction of AP-1 activity.
In general terms: In a reporter assay the amount or activity of a reporter protein is the signal.

The target in assay [3] is T3, GAL4 DNA binding domain linked to the ligand binding domain of GR (Homo sapiens, UniProt P04150).
T3 construct: expressed in transfected cells; host or cells: HeLa (stably transfected)
T3 sequence (P04150 524-758 limits assumed): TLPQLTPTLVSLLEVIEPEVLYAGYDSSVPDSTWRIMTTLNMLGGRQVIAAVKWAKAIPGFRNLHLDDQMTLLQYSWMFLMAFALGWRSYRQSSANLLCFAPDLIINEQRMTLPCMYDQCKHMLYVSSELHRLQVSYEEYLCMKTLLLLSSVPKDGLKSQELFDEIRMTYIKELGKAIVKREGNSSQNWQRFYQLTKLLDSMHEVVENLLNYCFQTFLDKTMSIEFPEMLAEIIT
The assay is described as follows: Cellular transcriptional assay (HeLa, GAL4-GR LBD, luciferase). Type of assay: cell-based. The procedure: In order to measure the ability of compounds to induce DNA binding and transcriptional activation in cells the following assay was performed. A HeLa cell line was stably transfected with a gene expressing a fusion protein consisting of the GAL4 DNA binding domain linked to the ligand binding domain of GR. Also transfected into these cells was a DNA binding site for GAL4 (5 repetitions of a 17-mer GAL4 binding site) linked to the beta-globin reporter in front of the luciferase gene. See Eisenmann, G., Cheynel, and Gronemeyer, H. (1995), Quand les cellules scintillent, Biofutur (Le Technoscope), 151: 8. […] After 20 hours the level of luciferase activity was measured using a Steady Glo Luciferase assay system (Promega Co., Madison, Wis.). […] EC50s were calculated by using standard curve fitting methods such as Excel Fit (Microsoft Co., Redmond, Wash.). An EC50 is the test molecule concentration required to cause a 50% stimulation of transcription.

Assay [4] relates to tyrosine amino transferase mRNA. The assay can be described thus: cells. The settings on record: read-out: EC50 for induction of tyrosine amino transferase mRNA. The procedure:
A second assay which measures the ability of compounds to induce the expression of tyrosine amino transferase mRNA in liver cells was also utilized to determine the ability of compounds to induce DNA binding. […] Test molecules were analyzed in the concentration range from 0.1 nM to 40 μM.

Entries after “also recorded” stand apart in the source; their conditions may differ. Like-named read-outs stand apart in the source and are kept apart here.

In general, inhibition refers to how much of the control response was suppressed. Broadly, the IC50 is the concentration that inhibits the measured activity by half. The EC50 is the concentration giving half of the maximal effect.

In the case of `Cc1ccc(-c2csc(NC(=O)C3(C)CC4(C#N)c5ccccc5C3c3ccccc34)n2)c2ccccc12` (centres unmarked) [Compound C], the “inhibition of dexamethasone binding to GR by the compound on its own” value in assay [1] was “do not inhibit dexamethasone binding; also recorded: do not inhibit dexamethasone on their own”. For the same molecule, the “displacement of Compound D allowing FITC-dexamethasone to rebind to GR” value at Site II on GR (Compound D at 200 nM) was “effective at displacing Compound D”.

For the molecule `Cc1ccc(-c2csc(NC(=O)C3(C)CC4(C#N)c5ccccc5C3c3ccccc34)n2)c2ccccc12` (centres unmarked) [Compound D], the “inhibition of dexamethasone binding to GR by the compound on its own” value in assay [1] is given as “does inhibit dexamethasone”. The inhibition at 0.2 µM at Site II on GR (200 nM, read-out: inhibition of FITC-dexamethasone binding) was roughly 50%.

Turning to `C[C@@H]1C[C@H]2[C@@H]3CCC4=CC(=O)C=C[C@]4(C)[C@@]3(F)[C@@H](O)C[C@]2(C)[C@@]1(O)C(=O)CO` [dexamethasone], the IC50 in assay [2] (Homo sapiens, A549, absence of Compound A) amounted to 3.4 nM; in assay [2] (Homo sapiens, A549, presence of 800 nM Compound A) it was 1.2 nM. The inhibition at 0.8 µM in assay [2] (Homo sapiens, A549, presence of 800 nM Compound A, read-out: percent inhibition) is 100%. The maximum percent inhibition in assay [2] (absence of Compound A) was found to be 75%. Moreover, the entries for the “% stimulation” value in assay [3] (absence of Compound A) and in assay [3] (presence of Compound A) were 100% and 47%, respectively. For the same molecule, in assay [4], the concentration giving a half-maximal response (EC50) is roughly 50 nM.
